Values of other authors as cited in patent US12472143B2, “Blend compositions for oral administration as a rapidly dissolving powder and/or suspension” (MARENDA PHARMACEUTICALS LLC, priority 2017, dated 2025).

- solubility in water: sparingly soluble
SMILES: CC(C)Cc1ccc(C(C)C(=O)O)cc1 (stereo not shown) [Ibuprofen]
